Source: patent US20240024385A1, “PROBIOTIC STRAIN FOR REDUCING SERUM URIC ACID, COMPOSITION AND USE THEREOF” (Ningbo Beiyijia Biotechnology Co., Ltd., priority 2022, published 2024)

Tests used:
[1] = 20° C.; cited from earlier work
serum uric acid = test: Combined use of composition 6 with a uric acid-reducing drug, serum uric acid in hyperuricemia patients with tophi; type: in vivo, human; design: Serum uric acid: unit not given here; conditions: for Serum uric acid: hyperuricemia patients with tophi, febuxostat 20 mg/day or benzbromarone 25 mg/day; for Effect on increase of serum uric acid level caused by dissolution of urate crystals by composition 6: small dose combined with composition 6 (febuxostat 20 mg/day or benzbromarone 25 mg/day)
Source text: The process of dissolving urate crystals and tophi will result in a temporary increase of the serum uric acid level, which may lead to acute gout inflammation. In order to relieve the increase of the serum uric acid level caused by the dissolution of urate crystals or tophi, the effect of combined use of the composition 6 with a small-dose uric acid-reducing drug on the inhibition of the rise of the serum uric acid level was investigated.
Fifty hyperuricemia patients with tophi were recruited as volunteers, divided into 5 groups, and separately administered with the composition 6 and the uric acid-reducing drug (febuxostat 20 mg/day or benzbromarone 25 mg/day) alone or in combination. The change of serum uric acid during the intervention period was observed.

Compound | Solubility in water [1] | Serum uric acid (serum uric acid; Day 0 (before intervention)) | Serum uric acid (serum uric acid; Day 30) | Serum uric acid (serum uric acid; Day 60) | Serum uric acid (serum uric acid; Day 90) | Effect on increase of serum uric acid level caused by dissolution of urate crystals by composition 6 (serum uric acid)
Nc1nc2nc[nH]c2c(=O)[nH]1 [guanine] | 0.17 mg/100 mL | – | – | – | – | –
Cc1nc(-c2ccc(OCC(C)C)c(C#N)c2)sc1C(=O)O [febuxostat] | – | 631 ± 51 | 571 ± 52 | 478 ± 57 | 416 ± 59 | can inhibit the increase of the serum uric acid level
Nc1nc2c(ncn2[C@@H]2O[C@H](CO)[C@@H](O)[C@H]2O)c(=O)[nH]1 [guanosine] | 77.6 mg/100 mL | – | – | – | – | –
Nc1nc2c(ncn2[C@@H]2O[C@H](COP(=O)(O)O)[C@@H](O)[C@H]2O)c(=O)[nH]1 [guanosine monophosphate] | 20 g/100 mL | – | – | – | – | –
CCc1oc2ccccc2c1C(=O)c1cc(Br)c(O)c(Br)c1 [benzbromarone] | – | 640 ± 78 | 593 ± 71 | 463 ± 53 | 405 ± 37 | can inhibit the increase of the serum uric acid level
